Measurements: US20230129438A1, “IMMUNOMODULATING IMINE-OXAZOLINE AZALIDES” (Zoetis Services LLC, priority 2020, published 2023)
pIC50: −log10 of the molar value. One block for each compound: values may come before it.

Legend:
[1] = test system: IL-6; assay: Bovine whole blood assay, LPS-induced IL-6; assay type: cell-based; details: LPS 1 μg/mL
[2] = test system: IL-1β; assay: Bovine whole blood assay, IL-1β; assay type: cell-based; details: drug concentration giving overstimulation of IL-1β over LPS (cellular toxicity signal)
Protocol: (§1) (protected from light) for 30 minutes.

[3] = test system: TNF-α; assay: Bovine whole blood assay, LPS-induced TNF-α; assay type: cell-based; details: LPS 1 μg/mL
Protocol: as §1

[4] = test system: P. multocida 46572; assay: In vivo mouse lung infection challenge model (murine efficacy model); details: for % Survival: 20 mg/kg subcutaneous, CD-1 mice, intranasal challenge, to Day 10, approximate (~%), harmonized relative to vehicle and M9
[5] = test system: P. multocida; assay: Murine P. multocida intranasal challenge study with lung tissue RNA sequence analysis; assay type: in vivo, mouse; details: placebo 0%
Protocol: In one murine P. multocida intranasal challenge study, mice were administered tulathromycin (16 mg/kg; T02), M9 (32 mg/kg; T03), or ceftiofur (9 mg/kg; T04) by subcutaneous injection 18 hours after bacterial challenge (5×10^3 CFU/mouse) for lung tissue RNA sequence analysis. Survival at Day 7 was about 80%, 50%, and 90% for T02, T03, and T04, respectively, compared to placebo at 0%. Differential gene expression from total lung tissue RNA sequence analysis indicated at least 226 unique genes were up or down regulated (with significance) for T03. Output from ingenuity pathway analysis of these unique genes predicted major upstream regulators of the involved pathways. Data was analyzed based on the number of genes being modulated in the same direction that were associated with a given upstream regulator. An activation z-score of 2 or greater is considered significant and the direction change is indicated by + (activated) or − (inhibited). The top 5 pathways included: IL-9 signaling, glucocorticoid receptor signaling, prolactin signaling, JAK STAT signaling, and IL-17 signaling. The top 6 upstream regulators (activation z-score) included: lipopolysaccharide (−6.725), TNF (−4.669), IFNγ (−5.759), IL-1β (−5.947), STAT1 (−2.787), and poly rI:rC-RNA (−5.289). Even though this study was run in the murine model, the top upstream regulators identified as being modulated by M9 include an almost ubiquitous overlap with the pathways identified in the natural disease study as being key mediators in BRD, and therefore is modulating highly relevant pathways in BRD pathobiology.

[6] = test system: M. haemolytica (strain: OSU-012103-BHI); assay: Bovine M. haemolytica intratracheal lung challenge model; assay type: in vivo
[7] = test system: S. aureus; assay: In-vitro MIC model, S. aureus; details: S. aureus ATCC 29213
[8] = test system: E. coli; assay: In-vitro MIC model, E. coli
[9] = test system: M. haemolytica; assay: In-vitro MIC model, M. haemolytica; assay type: cell-based
[10] = test system: P. multocida; assay: In-vitro MIC model, P. multocida; assay type: cell-based
[11] = M. haemolytica 46571, bovine efficacy challenge strain
[12] = P. multocida 46572, murine efficacy challenge strain

pIC50 [1]: 5.00
pIC50 [3]: 5.15
SMILES: CCCNC[C@]1(O)[C@H](C)O[C@@H](O[C@H]2[C@H](C)[C@@H](O[C@@H]3O[C@H](C)C[C@H]4[C@H]3OC(=Nc3ccccc3)N4C)[C@](C)(O)C[C@@H](C)CN(C)[C@H](C)[C@@H](O)[C@](C)(O)[C@@H](CC)OC(=O)[C@@H]2C)C[C@@]1(C)OC (mixture of isomers) [Example A-31, (E/Z)-(2R,3S,4R,5R,8R,10R,11R,12S,13S,14R)-11-(((3aR,4S,6R,7aS)-1,6-dimethyl-2-(phenylimino)hexahydro-2H-pyrano[4,3-d]oxazol-4-yl)oxy)-2-ethyl-3,4,10-trihydroxy-13-(((2R,4R,5S,6S)-5-hydroxy-4-methoxy-4,6-dimethyl-5-((propylamino)methyl)tetrahydro-2H-pyran-2-yl)oxy)-3,5,6,8,10,12,14-heptamethyl-1-oxa-6-azacyclopentadecan-15-one]
IL-Iβ OS of LPS [2]: >250 µM

SMILES: CC[C@H]1OC(=O)[C@H](C)[C@@H](O[C@H]2C[C@@](C)(OC)[C@](O)(CNCC3CC3)[C@H](C)O2)[C@H](C)[C@@H](O[C@@H]2O[C@H](C)C[C@H]3[C@H]2OC(=Nc2ccc(OC)nc2)N3C)[C@](C)(O)C[C@@H](C)CN[C@H](C)[C@@H](O)[C@]1(C)O (mixture of isomers) [Example A-25, (E/Z)-(2R,3S,4R,5R,8R,10R,11R,12S,13S,14R)-13-(((2R,4R,5S,6S)-5-(((cyclopropylmethyl)amino)methyl)-5-hydroxy-4-methoxy-4,6-dimethyltetrahydro-2H-pyran-2-yl)oxy)-2-ethyl-3,4,10-trihydroxy-11-(((3aR,4S,6R,7aS)-2-((6-methoxypyridin-3-yl)imino)-1,6-dimethylhexahydro-2H-pyrano[4,3-d]oxazol-4-yl)oxy)-3,5,8,10,12,14-hexamethyl-1-oxa-6-azacyclopentadecan-15-one]
pIC50 [1]: 5.40
IL-Iβ OS of LPS [2]: 16 µM
pIC50 [3]: 5.60
% Survival [4]: 26%

SMILES: CO/N=C(\C(=O)N[C@@H]1C(=O)N2C(C(=O)O)=C(CSC(=O)c3ccco3)CS[C@H]12)c1csc(N)n1 [ceftiofur]
Survival at Day 7 ([5]; 9 mg/kg subcutaneous 18 hours after challenge (T04)): ~90%

SMILES: CCCNC[C@]1(O)[C@H](C)O[C@@H](O[C@H]2[C@H](C)[C@@H](O[C@@H]3O[C@H](C)C[C@H](N(C)C)[C@H]3O)[C@](C)(O)C[C@@H](C)CN[C@H](C)[C@@H](O)[C@](C)(O)[C@@H](CC)OC(=O)[C@@H]2C)C[C@@]1(C)OC [tulathromycin, (2R,3S,4R,5R,8R,10R,11R,12S,13S,14R)-11-(((2S,3R,4S,6R)-4-(dimethylamino)-3-hydroxy-6-methyltetrahydro-2H-pyran-2-yl)oxy)-2-ethyl-3,4,10-trihydroxy-13-(((2R,4R,5S,6S)-5-hydroxy-4-methoxy-4,6-dimethyl-5-((propylamino)methyl)tetrahydro-2H-pyran-2-yl)oxy)-3,5,8,10,12,14-hexamethyl-1-oxa-6-azacyclopentadecan-15-one]
Mortality ([6]; T03: 2.5 mg/kg subcutaneous Day −1, M. haemolytica challenge Day 0, saline 4/6): 0/6
IL-6 levels, in words ([6]; bovine M. haemolytica challenge, blood biomarker): significantly reduced
Survival at Day 7 ([5]; 16 mg/kg subcutaneous 18 hours after challenge (T02)): about 80%

SMILES: CCCNC[C@]1(O)[C@H](C)O[C@@H](O[C@H]2[C@H](C)[C@@H](O[C@@H]3O[C@H](C)C[C@H]4[C@H]3OC(=Nc3ccc(OC)cc3)N4C)[C@](C)(O)C[C@@H](C)CN[C@H](C)[C@@H](O)[C@](C)(O)[C@@H](CC)OC(=O)[C@@H]2C)C[C@@]1(C)OC (mixture of isomers) [Example A-9, (E/Z)-(2R,3S,4R,5R,8R,10R,11R,12S,13S,14R)-2-ethyl-3,4,10-trihydroxy-13-(((2R,4R,5S,6S)-5-hydroxy-4-methoxy-4,6-dimethyl-5-((propylamino)methyl)tetrahydro-2H-pyran-2-yl)oxy)-11-(((3aR,4S,6R,7aS)-2-((4-methoxyphenyl)imino)-1,6-dimethylhexahydro-2H-pyrano[4,3-d]oxazol-4-yl)oxy)-3,5,8,10,12,14-hexamethyl-1-oxa-6-azacyclopentadecan-15-one]
MIC [7]: >64 µg/mL
MIC ([8]; E. coli ATCC 25922): >64 µg/mL
MIC ([8]; E. coli W3110): >64 µg/mL
MIC ([9]; M. haemolytica 12726): >64 µg/mL
MIC [9, 11]: >64 µg/mL
MIC ([9]; M. haemolytica ATCC 33396): >64 µg/mL
IL-Iβ OS of LPS [2]: 13 µM
pIC50 [3]: > 5.30
MIC [10, 12]: >64 µg/mL
MIC ([10]; P. multocida ATCC 43137): >64 µg/mL
% Survival [4]: 64%

pIC50 [1]: 5.70
pIC50 [3]: 5.30
SMILES: CCCNC[C@]1(O)[C@H](C)O[C@@H](O[C@H]2[C@H](C)[C@@H](O[C@@H]3O[C@H](C)C[C@H]4[C@H]3OC(=Nc3ccccc3)N4CC(C)C)[C@](C)(O)C[C@@H](C)CN[C@H](C)[C@@H](O)[C@](C)(O)[C@@H](CC)OC(=O)[C@@H]2C)C[C@@]1(C)OC (mixture of isomers) [Example A-32, (E/Z)-(2R,3S,4R,5R,8R,10R,11R,12S,13S,14R)-2-ethyl-3,4,10-trihydroxy-13-(((2R,4R,5S,6S)-5-hydroxy-4-methoxy-4,6-dimethyl-5-((propylamino)methyl)tetrahydro-2H-pyran-2-yl)oxy)-11-(((3aR,4S,6R,7aS)-1-isobutyl-6-methyl-2-(phenylimino)hexahydro-2H-pyrano[4,3-d]oxazol-4-yl)oxy)-3,5,8,10,12,14-hexamethyl-1-oxa-6-azacyclopentadecan-15-one]
IL-Iβ OS of LPS [2]: 2 µM

SMILES: CC[C@H]1OC(=O)[C@H](C)[C@@H](O[C@H]2C[C@@](C)(OC)[C@](O)(CNCC(C)C)[C@H](C)O2)[C@H](C)[C@@H](O[C@@H]2O[C@H](C)C[C@H]3[C@H]2OC(=Nc2ccc(OC)nc2)N3C)[C@](C)(O)C[C@@H](C)CN[C@H](C)[C@@H](O)[C@]1(C)O (mixture of isomers) [Example A-28, (E/Z)-(2R,3S,4R,5R,8R,10R,11R,12S,13S,14R)-2-ethyl-3,4,10-trihydroxy-13-(((2R,4R,5S,6S)-5-hydroxy-5-((isobutylamino)methyl)-4-methoxy-4,6-dimethyltetrahydro-2H-pyran-2-yl)oxy)-11-(((3aR,4S,6R,7aS)-2-((6-methoxypyridin-3-yl)imino)-1,6-dimethylhexahydro-2H-pyrano[4,3-d]oxazol-4-yl)oxy)-3,5,8,10,12,14-hexamethyl-1-oxa-6-azacyclopentadecan-15-one]
pIC50 [1]: 4.70
IL-Iβ OS of LPS [2]: 16 µM
pIC50 [3]: 5.10
% Survival [4]: 53%

SMILES: CC[C@H]1OC(=O)[C@H](C)[C@@H](O[C@H]2C[C@@](C)(OC)[C@](O)(CNCCOC)[C@H](C)O2)[C@H](C)[C@@H](O[C@@H]2O[C@H](C)C[C@H]3[C@H]2OC(=Nc2ccc(OC)cc2)N3C)[C@](C)(O)C[C@@H](C)CN[C@H](C)[C@@H](O)[C@]1(C)O (mixture of isomers) [Example A-13, (E/Z)-(2R,3S,4R,5R,8R,10R,11R,12S,13S,14R)-2-ethyl-3,4,10-trihydroxy-13-(((2R,4R,5S,6S)-5-hydroxy-4-methoxy-5-(((2-methoxyethyl)amino)methyl)-4,6-dimethyltetrahydro-2H-pyran-2-yl)oxy)-11-(((3aR,4S,6R,7aS)-2-((4-methoxyphenyl)imino)-1,6-dimethylhexahydro-2H-pyrano[4,3-d]oxazol-4-yl)oxy)-3,5,8,10,12,14-hexamethyl-1-oxa-6-azacyclopentadecan-15-one]
MIC [7]: >64 µg/mL
MIC ([8]; E. coli ATCC 25922): >64 µg/mL
MIC ([8]; E. coli W3110): >64 µg/mL
MIC ([9]; M. haemolytica 12726): >64 µg/mL
MIC [9, 11]: >64 µg/mL
MIC ([9]; M. haemolytica ATCC 33396): >64 µg/mL
IL-Iβ OS of LPS [2]: 32 µM
pIC50 [3]: 5.30
MIC [10, 12]: >64 µg/mL
MIC ([10]; P. multocida ATCC 43137): >64 µg/mL
% Survival [4]: 37%
clinical efficacy, in words ([4]; P. multocida infection in mice): clinically efficacious
